Earlier results on three substances are cited in patent US11532831B1, “Redox-active compounds and uses thereof” (Palo Alto Research Center Incorporated, priority 2021, dated 2022).

As a reminder, the Solubility is how much of the substance goes into solution per volume.

For data set [1] the following is noted: cited from earlier work.
The conditions of data set [2]: on platinum (footnote); cited from earlier work.

Regarding “bis(trimethylammoniopropyl)ferrocene [BTMAP-Fc]”, the “Solubility at pH 7” value in data set [1] is on record as 1.9M.

On to “ethylenediaminetetraacetatoferrate(2-) (Fe(II)-EDTA)/ethylenediaminetetraacetatoferrate(1-) (Fe(III)-EDTA) [Fe(EDTA)]”, for which the Kinetic rate constant in data set [2] is 0.026 cm/s. For the substance “iron(II) (Fe^2+)/iron(III) (Fe^3+) [Fe^2+/Fe^3+]”, the “Solubility at pH 7” value in data set [1] is given as “insoluble”.
